MDA level data for one compound are collected here from article PMC10077692, “Phytochemical profile, comparative evaluation of Satureja montana alcoholic extract for antioxidants, anti-inflammatory and molecular docking studies” (BMC Complementary Medicine and Therapies, 2023).

For this assay, the system named is MDA. Description: In-vitro antioxidant assay, MDA. In kind it is biochemical. On the procedure:
The enzymatic assays of COXs, LOX, TAC, Catalase, MDA, GSH, SOD, TNF -α, and MPO were determined colorimetrically as mentioned previously in reports.
Microsoft Excel 2010 program. All the data in Table 4 was represented as mean ± SD [23].
Total antioxidant capacity is the measure of the number of free radicals scavenged by a test solution, being used to evaluate the antioxidant capacity of biological samples. […] The standard ascorbic acid results were (19.7, 17.2 and 13.1 IU/ml) for TAC, Catalase and SOD, respectively.

For `O=C1O[C@H]([C@@H](O)CO)C(O)=C1O` [ascorbic acid], the MDA level was 15.3 µg/mL.
